Results from patent publication US20100249019A1, “USE OF A PEPTIDE AS A THERAPEUTIC AGENT” (priority 2007, published 2010).
No end group written: not given here.

How the values were obtained:
murine spleen cells = assay: Th1/Th2 cytokine profiling assay (Ovalbumin-restimulated spleen cells, CBA kit); assay type: cell-based, Balb/c mice; conditions: 10 micrograms per ml; 72 hours
Text: The Balb/c mice (originated in 1923, it is a popular strain and is used in many different research disciplines. Also classified as an inbred from the production of 20 or more successive brother-sister matings, the Balb/c mouse is albino and small in size) were immunized on Days 1, 15, and 29 with Ovalbumin (Ovalbumin is the main protein found in egg white, commonly used to stimulate an immunological reaction in test animals) in PBS (5 micrograms/injection). On day 50, spleens of the mice were harvested (3 weeks after last boost with Ovalbumin). […] Thereafter, additional Ovalbumin was added to the cells at 10 micrograms/ml for in vitro restimulation of the cells. 72 hours later, cell supernatants were harvested and assayed using the Becton Dickinson Mouse Th1/Th2 Cytokine CBA Kit.

HUVEC = assay: Endothelial tube formation assay; assay type: cell-based, human; conditions: 10 micrograms per ml; 20 hours
Experimental: The endothelial tube formation assay is based on the ability of endothelial cells to form three-dimensional capillary-like tubular structures when cultured on a gel of basement membrane extract. The endothelial tube formation assay represents a powerful model for studying inhibition and induction of angiogenesis. Pre-labeled HUVEC with Calcein AM were seeded in a 96-well culture plate coated with extracellular metrix (Chemicon international Cat. ECM625) and treated with test peptides—10 micrograms per ml—in full growth medium. Positive control wes vehicle only. The endothelial cells were allowed to form tubes foe 20 hours and were then examined under an inverted fluorescent microscope. Duplicate wells for each treatment were photographed and quantitatevily analyzed for an average tubule length using image analysis software ImageProPlus. Raw data were expressed as average tubule lengths in pixels±standard deviation. Statistic p values were computed using the Student's t-test.

[1] = system: hepatitis B virus (HBV) ayw strain; assay: HBV experimental assay system (HepG2-2.2.15, TaqMan PCR of HBV DNA); assay type: cell-based; conditions: 10 micrograms per ml; six days; HBV DNA vs virus control
[2] = system: Primary Human endothelial cells (HUVEC); assay: Endothelial cell migration assay; assay type: cell-based; conditions: 10 micrograms per ml; 22 hours
RAW 264.7 cells = assay: Phagocytosis assay (Fluorescein-labeled Escherichia coli, flow cytometry); conditions: 10 micrograms per ml; 30 min preincubation, 60 min ingestion
HCMV strain AD169 = assay: HCMV plaque formation assay in MRC-5 cells; conditions: 10 micrograms per ml, 7-10 days

For “Val-Pro-Leu-Pro-Ala-Gly-Gly-Gly-Thr-Val-Leu-Thr-Lys-Met-Tyr-Pro-Arg-Gly-Asn-His-Trp-Ala-Val-Gly-His-Leu-Met-NH2 (VPLPAGGGTVLTKMYPRGNHWAVGHLM-NH2) [Peptide 2]”, the “change of the production of IFN-γ” value (murine spleen cells) was “did not significantly change”, the “change of the production of IL-2” value (murine spleen cells) was “did not significantly change” and the “change of the production of IL-4” value (murine spleen cells) was “did not significantly change”. The “change of the production of TNF-alpha” value (murine spleen cells) was “did not significantly change”, the “decrease of the production of IL-5” value (murine spleen cells) was 34.0% and the “induction of the production of IL-2” value (murine spleen cells) was 67.3%. The “inhibition of the tube formation of human endothelial cells” value (HUVEC) was “do not inhibit”, the “inhibition of HBV replication on tested liver cells” value [1] was 30.6% and the “inhibition of the migration of human endothelial cells” value [2] was 26%. The “induction of phagocytosis as compared to control” value (RAW 264.7 cells) was 42.9% and the “inhibition of HCMV plaque formation as compared to the virus control” value (HCMV strain AD169) was 4.0%.
